The first assay has as its target T1, TYK2 kinase domain (Homo sapiens, UniProt P29597).
T1 construct: made in house; host or cells: SF9 insect cells (recombinant baculovirus)
T1 sequence (P29597 873-1187): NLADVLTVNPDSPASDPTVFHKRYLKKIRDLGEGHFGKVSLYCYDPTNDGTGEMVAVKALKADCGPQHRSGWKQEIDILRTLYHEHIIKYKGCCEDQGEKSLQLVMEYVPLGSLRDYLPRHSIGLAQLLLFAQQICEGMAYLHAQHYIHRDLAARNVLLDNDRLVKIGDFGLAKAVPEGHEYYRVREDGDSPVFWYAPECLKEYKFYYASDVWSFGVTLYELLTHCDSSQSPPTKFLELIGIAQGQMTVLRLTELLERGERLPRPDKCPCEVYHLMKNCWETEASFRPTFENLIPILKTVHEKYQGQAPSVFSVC
The experiment in a line: TYK2 inhibition assay (Caliper LabChip, isolated kinase domain). The class given is biochemical.
Conditions: not given
The source says:
The catalytically active kinase domain of human JAK1, JAK2, JAK3 or TYK2 was purified from extracts of SF9 insect cells infected with a recombinant baculovirus expression vector encoding the human JAK1, JAK2, JAK3 or TYK2 kinase domains (JAK1 amino acid residues N852-D1154 according to the numbering of GenBank sequence accession number P23458, JAK2 amino acid residues D812-G1132 according to the numbering of GenBank sequence accession number NP_004963.1; JAK3 amino acid residues S783-S1124 according to the numbering of GenBank sequence accession number P52333, and TYK2 amino acid residues N873-C1187 according to the numbering of GenBank sequence accession number P29597). The activity of the JAK1, JAK2, JAK3 or TYK2 kinase domains can be measured by a number of direct and indirect methods, including quantification of phosphorylation of peptide substrates derived from the human JAK3 protein (Saltzman et al., Biochem. Biophys. Res. Commun. 246:627-633 (2004)). The activity of the JAK1, JAK2, JAK3 or TYK2 kinase domains was measured in vitro by monitoring phosphorylation of JAK3 derived peptides using the Caliper LabChip technology (see Examples).
The activity of the isolated JAK1, JAK2 or TYK2 kinase domain was measured by monitoring phosphorylation of a peptide derived from JAK3 (SEQ ID NO:1 […] fluorescently labeled on the N-terminus with 5-carboxyfluorescein using the Caliper LabChip technology (Caliper Life Sciences, Hopkinton, Mass.). […] Reactions were incubated at 22° C. in 384-well polypropylene microtiter plates for 30 minutes and then stopped by addition of 25 uL of an EDTA containing solution (100 mM Hepes pH 7.2, 0.015% Brij-35, 150 mM EDTA), resulting in a final EDTA concentration of 50 mM. After termination of the kinase reaction, the proportion of phosphorylated product was determined as a fraction of total peptide substrate using the Caliper LabChip 3000 according to the manufacturer's specifications. Ki values were then determined using the Morrison tight binding model. Morrison, J. F., Biochim. Biophys. Acta. 185:269-296 (1969); William, J. W. and Morrison, J. F., Meth. Enzymol., 63:437-467 (1979).
On to `N#Cc1cc(Cl)c(C(=O)Nc2ccnc(NC(=O)C3CC3)c2)c(Cl)c1` [Example 256, 2,6-dichloro-4-cyano-N-(2-(cyclopropanecarboxamido)pyridin-4-yl)benzamide], for which the Ki (commonly the equilibrium dissociation constant of an inhibitor or competing ligand from its target) was approximately 2 nM.
Compound `O=C(Nc1ccnc(NC(=O)[C@H]2C[C@@H]2c2nnn[nH]2)c1)c1c(Cl)cccc1Cl` (relative stereo) [Example 320, N-(2-(trans-2-(1H-tetrazol-5-yl)cyclopropanecarboxamido)pyridin-4-yl)-2,6-dichlorobenzamide] displayed a Ki of approximately 52 nM.

Still in this assay, the particulars now being: isolated TYK2 kinase domain, 25 uM ATP; values given as 'about'; read-out: Ki values for TYK2 inhibition.
For `O=C(Nc1ccnc(NC(=O)[C@H]2C[C@H]2F)c1)c1c(Cl)cc(CO)cc1Cl` (relative stereo) [Example 315, 2,6-dichloro-N-(2-(cis-2-fluorocyclopropanecarboxamido)pyridin-4-yl)-4-(hydroxymethyl)benzamide], the Ki is approximately 8 nM.
For the compound `O=C(Nc1ccncn1)c1c(Cl)cccc1Cl` [Example 3, 2,6-dichloro-N-(pyrimidin-4-yl)benzamide], the inhibition constant (Ki) was approximately 720 nM.
In the case of `Nc1cc(NC(=O)c2c(Cl)cccc2Cl)ccn1` [Example 2, N-(2-aminopyridin-4-yl)-2,6-dichlorobenzamide], the inhibitory constant (Ki) was approximately 850 nM.
With `CN(C)C(=O)c1cc(Cl)c(C(=O)Nc2ccnc(NC(=O)C3CC3)c2)c(Cl)c1` [Example 260, 2,6-dichloro-N^1-(2-(cyclopropanecarboxamido)pyridin-4-yl)-N^4,N^4-dimethylterephthalamide], the Ki was approximately 27 nM.
For the compound `O=C(Nc1ccnc(NC2CC2)n1)c1c(Cl)cccc1Cl` [Example 156, 2,6-dichloro-N-(2-(cyclopropylamino)-pyrimidin-4-yl)benzamide], the Ki was approximately 990 nM.
As to `Cc1cc(Nc2cc(NC(=O)c3c(Cl)cc(Cl)cc3Cl)ccn2)nc(N2CCOCC2)n1` [Example 380, 2,4,6-trichloro-N-(2-(6-methyl-2-morpholinopyrimidin-4-ylamino)pyridin-4-yl)benzamide], the Ki is approximately 3.5 nM.
For `Cc1cc(Nc2cc(NC(=O)c3c(Cl)cccc3Cl)ccn2)nc(N)n1` [Example 495, N-(2-(2-amino-6-methylpyrimidin-4-ylamino)pyridin-4-yl)-2,6-dichlorobenzamide], the inhibition constant Ki was approximately 1.5 nM.
Consider `NC[C@H]1C[C@H]1C(=O)Nc1cc(NC(=O)c2c(F)cccc2Cl)ccn1` (relative stereo) [Example 608, cis-N-(2-(2-(aminomethyl)cyclopropanecarboxamido)pyridin-4-yl)-2-chloro-6-fluorobenzamide], for which the Ki was approximately 140 nM.
As to `O=C(Nc1cc(NC(=O)c2c(Cl)cccc2Cl)ccn1)Oc1ccccc1` [Example 350, phenyl 4-(2,6-dichlorobenzamido)pyridin-2-ylcarbamate], the Ki is approximately 62 nM.
Same read-out and setting: then `Cc1cc(Nc2nccc(NC(=O)c3c(Cl)cc(C#N)cc3Cl)c2[N+](=O)[O-])nc(C)n1` [Example 238, 2,6-dichloro-4-cyano-N-(2-(2,6-dimethylpyrimidin-4-ylamino)-3-nitropyridin-4-yl)benzamide], with approximately 450 nM; and `O=C(Nc1ccnc(Nc2nccs2)c1)c1c(Cl)cccc1Cl` [Example 4, 2,6-dichloro-N-(2-(thiazol-2-ylamino)pyridin-4-yl)benzamide], with approximately 380 nM; and `N#Cc1cc(Cl)c(C(=O)Nc2ccnc(N)c2)c(Cl)c1` [Example 281, N-(2-aminopyridin-4-yl)-2,6-dichloro-4-cyanobenzamide], with approximately 93 nM.
Take `Cc1ccc(Cl)c(C(=O)Nc2ccncc2)c1F` [Example 17, 6-chloro-2-fluoro-3-methyl-N-(pyridin-4-yl)benzamide]: the Ki was approximately 360 nM.
Regarding `Cc1cc(Nc2cc(NC(=O)c3c(Cl)cc(C#N)cc3Cl)ccn2)nc(N(CCO)CCO)n1` [Example 415, N-(2-(2-(bis(2-hydroxyethyl)amino)-6-methylpyrimidin-4-ylamino)pyridin-4-yl)-2,6-dichloro-4-cyanobenzamide], the Ki was approximately 0.5 nM.
For the compound `O=C(Nc1ccc(NC(=O)C2CC2)nc1)c1c(Cl)cccc1Cl` [2,6-dichloro-N-(6-(cyclopropanecarboxamido)-pyridin-3-yl)benzamide, reference compound], the Ki is more than 3500 nM.
Still for that read-out and setting: in the case of `CCc1cc(Nc2cc(NC(=O)c3c(Cl)cccc3Cl)ccn2)nc(N2CCC(F)(F)CC2)n1` [Example 572, 2,6-dichloro-N-(2-(2-(4,4-difluoropiperidin-1-yl)-6-ethylpyrimidin-4-ylamino)pyridin-4-yl)benzamide] it was approximately 80 nM; in that of `Cc1cc(Nc2cc(NC(=O)c3c(Cl)cc(CNCC4CC4)cc3Cl)ccn2)nc(N2CCOCC2)n1` [Example 406, 2,6-dichloro-4-((cyclopropylmethylamino)-methyl)-N-(2-(6-methyl-2-morpholinopyrimidin-4-ylamino)pyridin-4-yl)benzamide], approximately 3.6 nM.
Consider `COCCOc1ccc(Nc2cc(NC(=O)c3c(Cl)cccc3Cl)ccn2)cc1C(F)(F)F` [Example 115, 2,6-dichloro-N-(2-(4-(2-methoxyethoxy)-3-(trifluoromethyl)phenyl-amino)pyridin-4-yl)benzamide], for which the Ki was approximately 570 nM.
Same read-out and setting: then `O=C(Nc1ccncc1)c1c(Cl)cc(-c2cc[nH]n2)cc1Cl` [Example 11, 2,6-dichloro-4-(1H-pyrazol-3-yl)-N-(pyridin-4-yl)benzamide], with approximately 650 nM; and `O=C(Nc1cc(NC(=O)C2CC2)ncc1F)c1c(Cl)cccc1Cl` (single isomer, unassigned) [Example 264, 2,6-dichloro-N-(5-fluoro-2-cyclopropanecarboxamidopyridin-4-yl)benzamide], with approximately 10 nM; and `CCc1cc(Nc2cc(NC(=O)c3c(Cl)cccc3Cl)ccn2)nc(N(CCO)CCO)n1` [Example 579, N-(2-(2-(bis(2-hydroxyethyl)amino)-6-ethylpyrimidin-4-ylamino)pyridin-4-yl)-2,6-dichlorobenzamide], with approximately 0.6 nM.
On to `O=C(Nc1ccncc1F)c1c(Cl)cccc1Cl` [Example 272, 2,6-dichloro-N-(3-fluoropyridin-4-yl)benzamide], for which the Ki was approximately 190 nM.
On to `CNc1nc(Nc2cc(NC(=O)c3c(Cl)cccc3Cl)ccn2)cc(C(C)C)n1` [Example 551, 2,6-dichloro-N-(2-(6-isopropyl-2-(methylamino)pyrimidin-4-ylamino)pyridin-4-yl)benzamide], for which the Ki was approximately 3.3 nM.
For `O=C(Nc1ccncc1)c1c(Cl)cc(CO)cc1Cl` [Example 76, 2,6-dichloro-4-(hydroxymethyl)-N-(pyridin-4-yl)benzamide], the Ki is approximately 220 nM.
As for `O=C(Nc1ccnc(NC(=O)C2CC2)c1)c1c(Cl)cc(CO)cc1Cl` [Example 178, 2,6-dichloro-N-(2-(cyclopropanecarboxamido)-pyridin-4-yl)-4-(hydroxymethyl)benzamide], the inhibition constant Ki was approximately 5 nM.
Take `O=C(Nc1ccncc1)c1ccccc1Br` [Example 271, 2-bromo-N-(pyridine-4-yl)benzamide]: the Ki was approximately 810 nM.
`Cc1cc(Nc2cc(NC(=O)c3c(Cl)cc(CO)cc3Cl)ccn2)nc(NCCO)n1` [Example 416, 2,6-dichloro-N-(2-(2-(2-hydroxyethylamino)-6-methylpyrimidin-4-ylamino)pyridin-4-yl)-4-(hydroxymethyl)-benzamide]: the Ki is approximately 0.6 nM.
On to `O=C(Nc1ccnc(NC(=O)C2CC2)c1F)c1c(Cl)cccc1Cl` (single isomer, unassigned) [Example 263, 2,6-dichloro-N-(3-fluoro-2-cyclopropanecarboxamidopyridin-4-yl)benzamide], for which the Ki is approximately 24 nM.
Turning to `CCc1cc(Nc2cc(NC(=O)c3c(Cl)cccc3Cl)ccn2)nc(N2CCNCC2)n1` [Example 534, 2,6-dichloro-N-(2-(6-ethyl-2-(piperazin-1-yl)pyrimidin-4-ylamino)pyridin-4-yl)benzamide], the Ki was approximately 1.8 nM.

The same assay, now with this note: measured at 10 μM concentration of compound.
On to `O=C(Nc1ccc(NC(=O)C2CC2)nc1)c1c(Cl)cccc1Cl` [2,6-dichloro-N-(6-(cyclopropanecarboxamido)-pyridin-3-yl)benzamide, reference compound], for which the inhibition (commonly the relative decrease from the control value, in per cent) at 10 µM was approximately 5.7%.
